{
  "source": "patent US8779141B2",
  "about": "“Viral inhibitors” (Gilead Sciences, Inc., priority 2002, dated 2014)",
  "key": {"[1]": {"experiment": "Proliferation of exponentially growing Huh-5-2 cells (MTS)", "type": "cell-based", "settings": "human, exponentially growing Huh-5-2 cells (HCV replicon cell line); Table 11; inhibition of proliferation of exponentially growing Huh-5-2 cells by 50%", "protocol": "(§1) Cells were seeded at a density of 7000 cells per well in 96 well View Plate™ (Packard) in medium containing the same components as described above, except for G418. Cells were allowed to adhere and proliferate for 24 hr. At that time, culture medium was removed and serial dilutions of the test compounds were added in culture medium lacking G418. Interferon alfa 2a (500 IU) was included as a positive control. Plates were further incubated at 37° C. and 5% CO2 for 72 hours. Replication of the HCV replicon in Huh-5 cells results in luciferase activity in the cells. Luciferase activity is measured by adding 50 μl of 1× Glo-lysis buffer (Promega) for 15 minutes followed by 50 ul of the Steady-Glo Luciferase assay reagent (Promega). Luciferase activity is measured with a luminometer and the signal in each individual well is expressed as a percentage of the untreated cultures. […] Instead the density of the culture is measured by means of the MTS method (Promega)."}, "BVDV-1 (strain PE515)": {"system": "BVDV-1 (strain PE515)", "experiment": "Anti-BVDV assay, virus-induced cytopathic effect in MDBK cells (MTS)", "type": "cell-based, Bovine Viral Diarrhea Virus", "settings": "reduction of virus induced cytopathic effect in MDBK cells by 50%", "protocol": "(§2) Madin-Darbey Bovine Kidney (MDBK) cells were maintained in Dulbecco's modified Eagle medium (DMEM) supplemented with BVDV-free 5% fetal calf serum (DMEME-FCS) at 37° C. in a humidified, 5% CO2 atmosphere. BVDV-1 (strain PE515) was used to assess the antiviral activity in MDBK cells. Vero cells were maintained in the same way as MDBK cells. Vero cells were infected with Coxsackie B3 virus (strain Nancy).\nNinety-six-well cell culture plates were seeded with MDBK cells in DMEM-FCS so that cells reached 24 hr later confluency. Then medium was removed and serial 5-fold dilutions of the test compounds were added in a total volume of 100 ul, after which the virus inoculum (100 ul) was added to each well. […] Uninfected cells and cells receiving virus without compound were included in each assay plate. After 5 days, medium was removed and 90 μl of DMEM-FCS and 10 ul of MTS/PMS solution (Promega) was added to each well. Following a 2 hr incubation period at 37° C. the optical density of the wells was read at 498 nm in a microplate reader."}, "[2]": {"system": "HCV replicon in Huh-5-2 cells", "experiment": "Anti-HCV replicon assay, luciferase activity in Huh-5-2 cells", "type": "cell-based", "settings": "Hepatitis C virus, Table 11, inhibition of luciferase activity in the replicon system by 50%", "protocol": "as §1"}, "[3]": {"system": "HCV replicon (RNA) synthesis in Huh-5-2 cells", "experiment": "Quantitative analysis of HCV replicon RNA by Taqman real-time RT-PCR in Huh-5-2 cells", "type": "cell-based, Hepatitis C Virus", "settings": "for Delta CT: higher value = more profound inhibition of viral RNA synthesis; for CT: real-time RT-PCR, untreated 28.86 ± 0.04", "protocol": "Replicon cells were plated at 7.5×10^3 cells per well in a 96-well plate plates at 37° C. and 5% CO2 in Dulbecco's modified essential medium containing 10% fetal calf serum, 1% nonessential amino acids and 1 mg/ml Geneticin. After allowing 24 h for cell attachment, different dilutions of compound were added to the cultures. Plates were incubated for 5 days, at which time RNA was extracted using the Qiamp Rneazyi Kit (Qiagen, Hilden, Germany). […] After initial activation of uracil-N-glycosylase at 50° C. for 2 minutes, RT was performed at 60° C. for 30 minutes, followed by inactivation of uracil-N-glycosylase at 95° C. for 5 minutes. Subsequent PCR amplification consisted of 40 cycles of denaturation at 94° C. for 20 seconds and annealing and extension at 62° C. for 1 minute in an ABI 7700 sequence detector. For each PCR run, negative template and positive template samples were used. The cycle threshold value (Ct-value) is defined as the number of PCR cycles for which the signal exceeds the baseline, which defines a positive value. The sample was considered to be positive if the Ct-value was <50. Results are expressed as genomic equivalents (GE)."}, "[4]": {"experiment": "Cytostatic effect on exponentially growing MDBK cells (MTS)", "type": "cell-based, Bovine", "settings": "bovine; Table 9; reduction of growth of exponentially growing MDBK cells by 50%; mean of 2-5 determinations", "protocol": "(§3) Madin-Darbey Bovine Kidney (MDBK) cells were maintained in Dulbecco's modified Eagle medium (DMEM) supplemented with BVDV-free 5% fetal calf serum ([…]) at 37° C. in a humidified, 5% CO2 atmosphere. […] Vero cells were maintained in the same way as MDBK cells. […] The effect of the drugs on exponentially growing MDBK cells was assessed as follows. Cells were seeded at a density of 5000 cell/well in 96 well plates in MEM medium (Gibco) supplemented with 10% fetal calf serum, 2 mM L-glutamine (Life Technologies) and bicarbonate (Life Technologies). […] Cultures were then again further incubated for 3 days after which the effect on cell growth was quantified by means of the MTS method (Promega)."}, "MDBK cells": {"system": "MDBK cells", "experiment": "Cytostatic effect on exponentially growing MDBK cells (MTS)", "type": "cell-based, Bovine", "settings": "for MTC: Table 10, mean toxic concentration, reduces growth of exponentially growing MDBK cells by 50%", "protocol": "as §3"}, "[5]": {"system": "Coxsackie B3 virus (strain Nancy)", "experiment": "Anti-coxsackie virus assay, cytopathic effect in Vero cells (MTS)", "type": "cell-based", "settings": "Enterovirus B, Table 13, reduction of virus (CBV-3 Nancy strain)-induced cytopathic effect in Vero cells by 50%", "protocol": "as §2\n(§4) Ninety-six-well cell culture plates were seeded with Vero cells in DMEM medium containing 10 fetal calf serum (FCS) so that cells reached confluency 24-48 hr later. Medium was then removed and serial 5-fold dilutions of the test compounds were added in a total volume of 100 ul, after which the virus inoculum (100 μl) was added to each well. […] Uninfected cells and cells receiving virus without compound were included in each asay plate. After 5 days, the medium was removed and 90 μl of DMEM-FCS and 10 μl of MTS/PMS solution (Promega) was added to each well. Following a 2 hr incubation period at 37° C., the optical density of the wells was read at 498 nm in a microplate reader. The 50% effective concentration (EC50) value was defined as the concentration of compound that protects 50% of the cell monolayer from virus-induced cytopathic effect."}, "Vero cells": {"system": "Vero cells", "experiment": "Metabolism of confluent Vero cells (MTS)", "type": "cell-based", "settings": "Table 13; reduction of metabolism of confluent Vero cells by 50%, MTS method", "protocol": "as §2, §4"}, "BVDV (strain NADL)": {"system": "BVDV (strain NADL)", "type": "cell-based, Bovine Viral Diarrhea Virus", "settings": "GPJN22-resistant BVDV (F224S)", "protocol": "Wild type BVDV (strain NADL) was twice plaque purified on MDBK cells. The entire coding region of the genome of this virus was sequenced. This plaque purified and sequenced virus was then cultured in the presence of increasing drug concentrations of compound (GPJN22). Following 12 passages, the virus was at least 25 fold resistant to compound GPJN22. The resistant virus preparation was again plaque purified. The entire coding region of the genome of this virus was sequenced. A mutation F224S in the RNA dependent RNA polymerase gene of the virus was detected in 4 out of 4 clones of this virus; no other mutations were detected in the resistant viruses. The GPJN22-resistant virus was cross-resistant with VP32947 (see Table 8). VP32947 is an earlier reported selective inhibitor of BVDV replication [Baginski S G et al., Proc Natl Acad Sci USA. 2000 Jul. 5; 97(14):7981-6]. In VP32947-resistant BVDV, a similar mutation was identified as being responsible for the drug-resistance. To confirm that the F224S mutation is indeed responsible for the resistant phenotype, the mutation was reintroduced by site-directed mutagenesis in an full-length infectious clone of the BVDV (strain NADL) [Vassilev et al., J. Virol. 1997 January; 71(1):471-8.]."}, "[6]": {"settings": "Bovine viral diarrhea virus isolates and strains, Table 9, BVDV strain PE515, mean of 2-5 determinations, read-out: EC50"}, "[7]": {"settings": "Bovine viral diarrhea virus isolates and strains, Table 10, read-out: EC50"}},
  "note": "Like-named read-outs stand apart in the source and are kept apart here.",
  "data": [
    {"smiles": "Brc1ccc(Cn2ccc3nc(-c4ccccn4)nc-3c2)cc1", "note": "[GPJN-58, 5-[(4-Bromophenyl)methyl]-2-(2-pyridinyl)-5H-imidazo[4,5-c]pyridine]", "values": [
      {"measurement": "CC50 at 72 hours", "setting": "[1]", "value": 2, "unit": "µg/mL"},
      {"measurement": "EC50", "setting": "BVDV-1 (strain PE515); [6]", "value": 0.052, "unit": "µg/mL"},
      {"measurement": "EC50", "setting": "[2]", "value": 0.13, "unit": "µg/mL"},
      {"measurement": "Delta CT", "setting": "[3]; 0.0016 ug/ml", "value": 0.05},
      {"measurement": "CT", "setting": "[3]; 0.0016 ug/ml", "value": 28.91},
      {"measurement": "Delta CT", "setting": "[3]; 0.008 ug/ml", "value": 0.89},
      {"measurement": "CT", "setting": "[3]; 0.008 ug/ml", "value": 29.75},
      {"measurement": "Delta CT", "setting": "[3]; 0.04 ug/ml", "value": 1.03},
      {"measurement": "CT", "setting": "[3]; 0.04 ug/ml", "value": 29.89},
      {"measurement": "Delta CT", "setting": "[3]; 0.2 ug/ml", "value": 1.14},
      {"measurement": "CT", "setting": "[3]; 0.2 ug/ml", "value": 30.00},
      {"measurement": "Delta CT", "setting": "[3]; 1 ug/ml", "value": 4},
      {"measurement": "CT", "setting": "[3]; 1 ug/ml", "value": 32.86},
      {"measurement": "CC50 at 3 days", "setting": "[4]", "value": 8.1, "unit": "µg/mL"}
    ]},
    {"smiles": "Fc1ccccc1-c1nc2ccn(Cc3ccc(Cl)cc3)cc-2n1", "note": "[GPJN-112, 5-[(4-Chlorophenyl)methyl]-2-(2-fluorophenyl)-5H-imidazo[4,5-c]pyridine]", "values": [
      {"measurement": "CC50 at 72 hours", "setting": "[1]", "value": "> 17", "unit": "µg/mL"},
      {"measurement": "EC50", "setting": "BVDV-1 (strain PE515); [7]", "value": 0.0049, "unit": "µg/mL"},
      {"measurement": "EC50", "setting": "[2]", "value": 0.29, "unit": "µg/mL"},
      {"measurement": "MTC", "setting": "MDBK cells", "value": 20, "unit": "µg/mL"}
    ]},
    {"smiles": "Fc1ccccc1-c1nc2ccn(Cc3ccc(I)cc3)cc-2n1", "note": "[GPJN-113, 2-(2-Fluorophenyl)-5-[(4-iodophenyl)methyl]-5H-imidazo[4,5-c]pyridine]", "values": [
      {"measurement": "CC50 at 72 hours", "setting": "[1]", "value": 14, "unit": "µg/mL"},
      {"measurement": "EC50", "setting": "BVDV-1 (strain PE515); [7]", "value": 0.0031, "unit": "µg/mL"},
      {"measurement": "EC50", "setting": "[2]", "value": 0.17, "unit": "µg/mL"},
      {"measurement": "MTC", "setting": "MDBK cells", "value": 20, "unit": "µg/mL"}
    ]},
    {"smiles": "Fc1cccc(F)c1Cn1ccc2nc(-c3c(F)cccc3F)nc-2c1", "note": "[GPRTI-8, 2-(2,6-Difluorophenyl)-5-[(2,6-difluorophenyl)methyl]-5H-imidazo[4,5-c]pyridine]", "values": [
      {"measurement": "EC50", "setting": "[5]", "value": 12.2, "unit": "µg/mL"},
      {"measurement": "melting point", "value": "195 to 197", "unit": "°C"},
      {"measurement": "EC50", "setting": "BVDV-1 (strain PE515); [6]", "value": 0.137, "unit": "µg/mL"},
      {"measurement": "TC50", "setting": "Vero cells", "value": ">100", "unit": "µg/mL"},
      {"measurement": "CC50 at 3 days", "setting": "[4]", "value": "> 79", "unit": "µg/mL"}
    ]},
    {"smiles": "CCCN(CCC)CCSc1nnc2c(n1)[nH]c1ccccc12", "note": "[VP32947, 3-[((2-dipropylamino)ethyl)thio]-5H-1,2,4-triazino[5,6-b]indole, reference compound]", "values": [
      {"measurement": "EC50", "setting": "BVDV-1 (strain PE515); Table 9, BVDV strain PE515, mean of 2-5 determinations", "value": 0.003, "unit": "µg/mL"},
      {"measurement": "cross-resistance of the GPJN22-resistant virus", "setting": "BVDV (strain NADL)", "value": "cross-resistant"},
      {"measurement": "CC50", "setting": "MDBK cells; Table 9, reduction of growth of exponentially growing MDBK cells by 50%, mean of 2-5 determinations", "value": 47, "unit": "µg/mL"}
    ]}
  ]
}
